Measurements as given in US5036050A, “Compositions containing thymopentin for topical treatment of skin disorders” (Immunobiology Research Institute, Inc., priority 1989, dated 1991).
Where no end group is shown, it is not given here.

Tested on: neuromuscular transmission
Experiment: Neuromuscular assay (electromyography after topical application)
Assay type: in vivo, guinea pigs
Settings: 18 hours later
Method: To determine the effect of different formulations and dosages of compositions according to the invention, varying amounts of topical TP5 compositions prepared as described in Example 1B, were applied to the skin of guinea pigs.
A 11/2"×11/2" square section was shaved on each animal's back 24 hours before the application of the thymopentin composition. Four concentrations of thymopentin cream were used (10%, 5%, 2.5% and 1.25%) using Unibase® as a diluent. A total of 100 mg of cream containing either 10 mg, 5 mg, 2.5 mg or 1.25 mg thymopentin was rubbed with a spatula on the shaved skin of each animal. Control animals were treated similarly with the Unibase® carrier only.
Eighteen hours later the neuromuscular transmission of each group of five animals for each concentration was assessed by electromyography as described in Lancet, 12:256-259 (1975).

RKDVY [thymopentin]
neuromuscular change compared to control animals (5% thymopentin cream in Unibase, 100 mg cream (5 mg thymopentin) on shaved skin): Significant neuromuscular change | neuromuscular change compared to control animals (10% thymopentin cream in Unibase, 100 mg cream (10 mg thymopentin) on shaved skin): Significant neuromuscular change
